Measured values from US20260240850A1, “Compositions and Methods for Treating MALT1 Associated Diseases” (Rarefied Biosciences, Inc., priority 2023, published 2026).

How the values were obtained:
full-length human MALT1 = molecular target: T1, full-length human MALT1 (Homo sapiens, UniProt Q9UDY8); assay: MALT1 cleavage of HOIL1 (Example 5); type: biochemical; conditions: HOIL1 0.05 μg/μL with MALT1, 2 h at 37° C.; gel electrophoresis/immunoblot
T1 construct: Recombinant full-length human MALT1 protein was expressed and purified; made in house
T1 sequence (Q9UDY8 1-824): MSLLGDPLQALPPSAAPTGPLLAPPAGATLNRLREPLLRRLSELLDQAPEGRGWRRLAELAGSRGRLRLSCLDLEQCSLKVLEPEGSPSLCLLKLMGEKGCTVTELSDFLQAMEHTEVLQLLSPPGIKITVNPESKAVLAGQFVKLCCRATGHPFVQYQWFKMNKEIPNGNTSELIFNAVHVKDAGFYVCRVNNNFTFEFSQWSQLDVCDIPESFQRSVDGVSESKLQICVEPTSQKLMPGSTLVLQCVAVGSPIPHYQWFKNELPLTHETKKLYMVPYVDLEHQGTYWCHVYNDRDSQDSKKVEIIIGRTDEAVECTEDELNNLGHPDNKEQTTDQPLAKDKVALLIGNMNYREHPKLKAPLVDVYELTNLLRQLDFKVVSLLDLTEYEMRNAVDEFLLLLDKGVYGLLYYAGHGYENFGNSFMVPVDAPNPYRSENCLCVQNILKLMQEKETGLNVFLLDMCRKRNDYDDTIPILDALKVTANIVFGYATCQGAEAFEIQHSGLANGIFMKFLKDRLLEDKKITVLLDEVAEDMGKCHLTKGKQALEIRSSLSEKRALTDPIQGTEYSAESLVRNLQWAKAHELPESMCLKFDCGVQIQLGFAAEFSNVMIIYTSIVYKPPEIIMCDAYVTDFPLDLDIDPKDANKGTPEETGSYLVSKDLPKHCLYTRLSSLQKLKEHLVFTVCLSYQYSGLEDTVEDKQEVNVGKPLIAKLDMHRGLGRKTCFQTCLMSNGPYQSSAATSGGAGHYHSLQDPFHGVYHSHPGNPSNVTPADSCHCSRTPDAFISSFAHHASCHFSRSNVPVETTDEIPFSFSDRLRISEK
Experimental: Recombinant full-length human MALT1 protein was expressed and purified. C-terminal Myc-FLAG-tagged full-length human HOIL1 was obtained from Origene. HOIL1 protein (0.05 μg/μL) is incubated with different concentrations of MALT1 in assay buffer (200 mM Tris-HCl, 0.8 M Na citrate, 0.1 mM EGTA, 0.05% CHAPS, 1 mM DTT, pH 7.4) for 2 h at 37° C. Cleavage of HOIL1 was analyzed by gel electrophoresis using a 4-12% Bis-Tris SDS-polyacrylamide (PAGE) gradient gel (Life Technologies). The presence of a small fragment was confirmed by immunoblotting with an N-terminal antibody (anti-N-terminal HOIL1; HPA024185; Sigma). Total HOIL1 was observed using a C-terminal directed antibody (anti-FLAG, clone M2, Sigma). These assays are performed with both the cleavable HOIL1 and, as a negative control, a non-cleavable HOIL1 (where Lys is substituted for Arg165).

[1] = tested on: Jurkat cells engineered with the E134G, C49Y, or G123D CARD11 gain of function (GOF) mutant; κB-GFP readout of NFκB signaling; assay: NF-κB-GFP reporter in Jurkat cells engineered with CARD11 gain of function mutants (Example 6); type: cell-based; conditions: C49Y or G123D CARD11, all three mutants, dose dependent from about 100 nM to 5 μM
Experimental: Jurkat cells were engineered with the E134G, C49Y, or G123D CARD11 gain of function (GOF) mutant. The Jurkat cells included a reporter gene (κB-GFP) that acts as a readout of NFκB signaling.
Jurkat cells bearing GOF E134G, C49Y, or G123D CARD11 had elevated baseline activation of NF-κB-GFP. MALT1 inhibitors (e.g., Compound 1.1 or 2.4) were incubated with the above engineered Jurkat cells.

[2] = tested on: T cells that lack endogenous CARD11 and bear transfected CARD11 gain-of-function mutations; κB-GFP readout of NFκB signaling; assay: NF-κB-GFP reporter in T cells transfected with CARD11 gain-of-function cDNA (Example 1); type: cell-based; conditions: T cells with CARD11 GOF variants; baseline and after anti-CD3 or PMA/ionomycin; flow cytometry
Experimental: MALT1 inhibitors (e.g., Compounds 1.1, 1.26, 1.27, 1.30, 1.33, 2.1, and/or 2.4) are incubated with T cells that lack endogenous CARD11 and bear transiently transfected CARD11 cDNA bearing gain-of-function mutations. An optional variation is co-transfecting 50:50 a copy of the wildtype CARD11 gene with the CARD11 gain of function mutant. The T-cells include a reporter gene (κB-GFP) that acts as a readout of NFκB signaling. The expression of NF-κB-GFP at baseline and after anti-CD3, or PMA/ionomycin stimulation is measured.
T-Cells bearing GOF variants of CARD11 have elevated baseline activation of NF-κB-GFP, and higher still after stimulation, which is assessed by flow cytometry.

[3] = molecular target: T2, proteolytic function of MALT1 (cleavage of CYLD) (Homo sapiens, UniProt Q9UDY8); assay: CYLD cleavage in Jurkat cells bearing GOF CARD11 (Example 6); type: cell-based; conditions: Jurkat cells with GOF E134G, C49Y or G123D CARD11; dose dependent in the range of about 100 nM to 10 μM
T2 construct: endogenous in cells; host or cells: Jurkat cells bearing GOF E134G, C49Y or G123D CARD11
T2 sequence (Q9UDY8 1-824): T1 sequence (Q9UDY8 1-824)
Experimental: Jurkat cells bearing GOF E134G, C49Y, or G123D CARD11 were also assessed for cleavage of CYLD as a measure of the proteolytic function of MALT1. In the absence of inhibitors, the Jurkat cells with the GOF CARD11 mutants cleaved CYLD.

[4] = tested on: epithelial cells (e.g., HEK293 cells) bearing CARD14 gain-of-function mutations; κB-GFP readout of NFκB signaling; assay: NF-κB-GFP reporter in epithelial cells transfected with CARD14 gain-of-function cDNA (Example 4); type: cell-based; conditions: epithelial cells with CARD14 GOF variants; flow cytometry
Experimental: MALT1 inhibitors (e.g., Compounds 1.1, 1.26, 1.27, 1.30, 1.33, 2.1, and/or 2.4) are incubated with epithelial cells (e.g., HEK293 cells) that lack endogenous CARD14 and bear transiently transfected CARD14 cDNA bearing gain-of-function mutations. The epithelial cells include a reporter gene (κB-GFP) that acts as a readout of NFκB signaling. The expression of NF-κB-GFP at baseline and after anti-CD3, or PMA/ionomycin stimulation is measured.
Epithelial cells bearing gain of function variants of CARD14 have elevated baseline activation of NF-κB-GFP, and higher still after stimulation, which is assessed by flow cytometry.

[5] = tested on: mTor pathway (e.g., mTORc1 and/or mTORc2) in primary T cells; assay: mTor pathway activation in stimulated primary T cells, pAkt/pS6 staining (Example 3); type: cell-based; conditions: primary T cells after anti-CD3/anti-CD28 activation
Experimental: Primary T cells are stimulated to activation and cultured in the presence of IL-2. For stimulation, cells are preincubated with anti-CD3F and anti-CD28 on ice and washed. Cells were stimulated by crosslinking the anti-CD3 antibody with a secondary antibody (e.g., anti-mouse IgG for 10 min) in complete T cell media and then fixed with pre-warmed fixation buffer. Cells are then washed with FACS buffer and permeabilized with permeabilization buffer pre-chilled to −20° C. and incubated for 30 min on ice. Cells are washed and then stained with the following antibodies or appropriate isotype controls anti-pAkt (Ser473) and anti-pS6 (Ser240/244).
MALT1 inhibitors (e.g., Compounds 1.1, 1.26, 1.27, 1.30, 1.33, 2.1, and/or 2.4) are incubated with the primary T cells after activation.

patients with BENTA = assay: Clinical trial of MALT1 inhibitors for BENTA (Example 2); type: in vivo; conditions: oral once daily, 25 mg/day up to 1000 mg/day
Experimental: MALT1 inhibitors (e.g., Compounds 1.1, 1.26, 1.27, 1.30, 1.33, 2.1, and/or 2.4) are used to treat patients with BENTA. MALT1 inhibitors (e.g., Compounds 1.1, 1.26, 1.27, 1.30, 1.33, 2.1, and/or 2.4) are formulated in an oral dosage form and administered to patients once daily at a starting dose of 25 mg/day. Alternatively, the daily dose is escalated from 25 mg/day to 1000 mg/day.

- cleavage of HOIL1 (full-length human MALT1): cleavage of HOIL1 is reduced
Compound: CO[C@@H](C)c1c(Nc2ccc([C@H](N(C)C(=O)C3CCS(=O)(=O)CC3)C(F)(F)F)cc2)cnc2nc(Cl)nn12 [Compound 1.1, N-[(1S)-1-[4-({2-chloro-7-[(1S)-1-methoxyethyl]-[1,2,4]triazolo[1,5-a]pyrimidin-6-yl}amino)phenyl]-2,2,2-trifluoroethyl]-N-methyl-1,1-dioxo-1λ^6-thiane-4-carboxamide]
- NF-κB-GFP expression [1]: reduced NF-κB-GFP expression in a dose dependent fashion
- NF-κB-GFP expression [2]: lowered NF-κB-GFP expression
- CYLD cleavage [3]: suppress this CYLD cleavage in a dose dependent manner
- NF-κB-GFP expression [4]: lowered NF-κB-GFP expression
- mTor pathway (mTORc1 and/or mTORc2) activation [5]: suppress mTor pathway (e.g., mTORc1 and/or mTORc2) activation
- BENTA symptoms (patients with BENTA): amelioration of their BENTA symptoms
- Jun/Fos, NF-κB and/or mTor pathway activation in patients (patients with BENTA): reduced Jun/Fos, and/or NF-κB and/or a mTor pathway (e.g., mTORc1 and/or mTORc2) activation
